Earlier results as cited in US10172902B2, “Ocular eyelid scrub composition for the treatment of demodex blepharitis” (LUNOVUS, LLC, priority 2014, dated 2019).

System: ocular Demodex
Conditions: solutions, suspensions, sprays, lotions, gels, pastes, cleansers, creams or ointments

## CC1=CCC(O)(C(C)C)CC1 (stereo not shown) [terpinen-4-ol]
  treating an ocular Demodex infestation or Demodex-induced blepharitis: effective
